In the OligoGym collection:
Oligonucleotides are given in HELM: sugar(base)linkage, 5' to 3'; d 2'-deoxyribose, r ribose, m 2'-O-methylribose, p phosphate. ss, as = sense and antisense strand

Target: UBE2D3
Experiment: reporter assay of Huesken 2005
Conditions: siRNA
Further: test concentration or dose not given here.

Substance	normalised inhibition (eCFP-eYFP dual reporter) [%]
RNA1{r(U)p.r(C)p.r(U)p.r(G)p.r(C)p.r(A)p.r(G)p.r(G)p.r(U)p.r(C)p.r(C)p.r(A)p.r(G)p.r(U)p.r(U)p.r(G)p.r(G)p.r(G)p.r(G)p.d(T)p.d(T)}|RNA2{r(C)p.r(C)p.r(C)p.r(C)p.r(A)p.r(A)p.r(C)p.r(U)p.r(G)p.r(G)p.r(A)p.r(C)p.r(C)p.r(U)p.r(G)p.r(C)p.r(A)p.r(G)p.r(A)p.d(A)p.d(C)}$$$RNA1{StrandType:ss}|RNA2{StrandType:as}$	32.9
RNA1{r(U)p.r(G)p.r(A)p.r(C)p.r(A)p.r(A)p.r(U)p.r(U)p.r(C)p.r(A)p.r(U)p.r(U)p.r(U)p.r(U)p.r(C)p.r(C)p.r(U)p.r(A)p.r(C)p.d(T)p.d(T)}|RNA2{r(G)p.r(U)p.r(A)p.r(G)p.r(G)p.r(A)p.r(A)p.r(A)p.r(A)p.r(U)p.r(G)p.r(A)p.r(A)p.r(U)p.r(U)p.r(G)p.r(U)p.r(C)p.r(A)p.d(A)p.d(A)}$$$RNA1{StrandType:ss}|RNA2{StrandType:as}$	55.4
RNA1{r(U)p.r(G)p.r(C)p.r(A)p.r(U)p.r(U)p.r(U)p.r(A)p.r(C)p.r(A)p.r(A)p.r(C)p.r(A)p.r(A)p.r(G)p.r(A)p.r(A)p.r(U)p.r(U)p.d(T)p.d(T)}|RNA2{r(A)p.r(A)p.r(U)p.r(U)p.r(C)p.r(U)p.r(U)p.r(G)p.r(U)p.r(U)p.r(G)p.r(U)p.r(A)p.r(A)p.r(A)p.r(U)p.r(G)p.r(C)p.r(A)p.d(A)p.d(C)}$$$RNA1{StrandType:ss}|RNA2{StrandType:as}$	83.3
RNA1{r(U)p.r(G)p.r(C)p.r(U)p.r(A)p.r(U)p.r(G)p.r(U)p.r(G)p.r(A)p.r(U)p.r(C)p.r(C)p.r(A)p.r(A)p.r(A)p.r(C)p.r(C)p.r(C)p.d(T)p.d(T)}|RNA2{r(G)p.r(G)p.r(G)p.r(U)p.r(U)p.r(U)p.r(G)p.r(G)p.r(A)p.r(U)p.r(C)p.r(A)p.r(C)p.r(A)p.r(U)p.r(A)p.r(G)p.r(C)p.r(A)p.d(G)p.d(T)}$$$RNA1{StrandType:ss}|RNA2{StrandType:as}$	42.2
RNA1{r(U)p.r(G)p.r(C)p.r(U)p.r(U)p.r(U)p.r(A)p.r(A)p.r(C)p.r(A)p.r(A)p.r(U)p.r(U)p.r(U)p.r(C)p.r(U)p.r(A)p.r(A)p.r(A)p.d(T)p.d(T)}|RNA2{r(U)p.r(U)p.r(U)p.r(A)p.r(G)p.r(A)p.r(A)p.r(A)p.r(U)p.r(U)p.r(G)p.r(U)p.r(U)p.r(A)p.r(A)p.r(A)p.r(G)p.r(C)p.r(A)p.d(G)p.d(G)}$$$RNA1{StrandType:ss}|RNA2{StrandType:as}$	92
RNA1{r(U)p.r(G)p.r(G)p.r(C)p.r(A)p.r(G)p.r(C)p.r(A)p.r(U)p.r(U)p.r(U)p.r(G)p.r(U)p.r(C)p.r(U)p.r(C)p.r(G)p.r(A)p.r(U)p.d(T)p.d(T)}|RNA2{r(A)p.r(U)p.r(C)p.r(G)p.r(A)p.r(G)p.r(A)p.r(C)p.r(A)p.r(A)p.r(A)p.r(U)p.r(G)p.r(C)p.r(U)p.r(G)p.r(C)p.r(C)p.r(A)p.d(T)p.d(T)}$$$RNA1{StrandType:ss}|RNA2{StrandType:as}$	99.6
RNA1{r(U)p.r(G)p.r(G)p.r(G)p.r(A)p.r(C)p.r(C)p.r(U)p.r(A)p.r(A)p.r(U)p.r(G)p.r(A)p.r(C)p.r(A)p.r(G)p.r(C)p.r(C)p.r(C)p.d(T)p.d(T)}|RNA2{r(G)p.r(G)p.r(G)p.r(C)p.r(U)p.r(G)p.r(U)p.r(C)p.r(A)p.r(U)p.r(U)p.r(A)p.r(G)p.r(G)p.r(U)p.r(C)p.r(C)p.r(C)p.r(A)p.d(T)p.d(A)}$$$RNA1{StrandType:ss}|RNA2{StrandType:as}$	48.6
RNA1{r(U)p.r(G)p.r(G)p.r(U)p.r(C)p.r(G)p.r(C)p.r(C)p.r(U)p.r(G)p.r(C)p.r(U)p.r(U)p.r(U)p.r(A)p.r(A)p.r(C)p.r(A)p.r(A)p.d(T)p.d(T)}|RNA2{r(U)p.r(U)p.r(G)p.r(U)p.r(U)p.r(A)p.r(A)p.r(A)p.r(G)p.r(C)p.r(A)p.r(G)p.r(G)p.r(C)p.r(G)p.r(A)p.r(C)p.r(C)p.r(A)p.d(C)p.d(T)}$$$RNA1{StrandType:ss}|RNA2{StrandType:as}$	90.3
RNA1{r(U)p.r(U)p.r(A)p.r(U)p.r(C)p.r(C)p.r(A)p.r(U)p.r(U)p.r(U)p.r(G)p.r(U)p.r(U)p.r(C)p.r(A)p.r(C)p.r(U)p.r(G)p.r(C)p.d(T)p.d(T)}|RNA2{r(G)p.r(C)p.r(A)p.r(G)p.r(U)p.r(G)p.r(A)p.r(A)p.r(C)p.r(A)p.r(A)p.r(A)p.r(U)p.r(G)p.r(G)p.r(A)p.r(U)p.r(A)p.r(A)p.d(A)p.d(A)}$$$RNA1{StrandType:ss}|RNA2{StrandType:as}$	23.6
RNA1{r(U)p.r(U)p.r(C)p.r(A)p.r(A)p.r(A)p.r(C)p.r(C)p.r(A)p.r(C)p.r(C)p.r(U)p.r(A)p.r(A)p.r(G)p.r(G)p.r(U)p.r(U)p.r(G)p.d(T)p.d(T)}|RNA2{r(C)p.r(A)p.r(A)p.r(C)p.r(C)p.r(U)p.r(U)p.r(A)p.r(G)p.r(G)p.r(U)p.r(G)p.r(G)p.r(U)p.r(U)p.r(U)p.r(G)p.r(A)p.r(A)p.d(G)p.d(G)}$$$RNA1{StrandType:ss}|RNA2{StrandType:as}$	64.4
RNA1{r(U)p.r(U)p.r(C)p.r(A)p.r(U)p.r(U)p.r(U)p.r(U)p.r(C)p.r(C)p.r(U)p.r(A)p.r(C)p.r(A)p.r(G)p.r(A)p.r(C)p.r(U)p.r(A)p.d(T)p.d(T)}|RNA2{r(U)p.r(A)p.r(G)p.r(U)p.r(C)p.r(U)p.r(G)p.r(U)p.r(A)p.r(G)p.r(G)p.r(A)p.r(A)p.r(A)p.r(A)p.r(U)p.r(G)p.r(A)p.r(A)p.d(T)p.d(T)}$$$RNA1{StrandType:ss}|RNA2{StrandType:as}$	85
RNA1{r(U)p.r(U)p.r(C)p.r(U)p.r(G)p.r(C)p.r(A)p.r(G)p.r(G)p.r(U)p.r(C)p.r(C)p.r(A)p.r(G)p.r(U)p.r(U)p.r(G)p.r(G)p.r(G)p.d(T)p.d(T)}|RNA2{r(C)p.r(C)p.r(C)p.r(A)p.r(A)p.r(C)p.r(U)p.r(G)p.r(G)p.r(A)p.r(C)p.r(C)p.r(U)p.r(G)p.r(C)p.r(A)p.r(G)p.r(A)p.r(A)p.d(C)p.d(A)}$$$RNA1{StrandType:ss}|RNA2{StrandType:as}$	50
RNA1{r(U)p.r(U)p.r(G)p.r(C)p.r(A)p.r(U)p.r(U)p.r(U)p.r(A)p.r(C)p.r(A)p.r(A)p.r(C)p.r(A)p.r(A)p.r(G)p.r(A)p.r(A)p.r(U)p.d(T)p.d(T)}|RNA2{r(A)p.r(U)p.r(U)p.r(C)p.r(U)p.r(U)p.r(G)p.r(U)p.r(U)p.r(G)p.r(U)p.r(A)p.r(A)p.r(A)p.r(U)p.r(G)p.r(C)p.r(A)p.r(A)p.d(C)p.d(C)}$$$RNA1{StrandType:ss}|RNA2{StrandType:as}$	68.4
RNA1{r(U)p.r(U)p.r(U)p.r(A)p.r(C)p.r(A)p.r(A)p.r(C)p.r(A)p.r(A)p.r(G)p.r(A)p.r(A)p.r(U)p.r(U)p.r(U)p.r(A)p.r(U)p.r(C)p.d(T)p.d(T)}|RNA2{r(G)p.r(A)p.r(U)p.r(A)p.r(A)p.r(A)p.r(U)p.r(U)p.r(C)p.r(U)p.r(U)p.r(G)p.r(U)p.r(U)p.r(G)p.r(U)p.r(A)p.r(A)p.r(A)p.d(T)p.d(G)}$$$RNA1{StrandType:ss}|RNA2{StrandType:as}$	48.8
